{
  "source": "patent US9758517B2",
  "about": "“Histone demethylase inhibitors” (Quanticel Pharmaceuticals, Inc., priority 2014, dated 2017)",
  "data": [
    {"target": "JMJD2C (Homo sapiens (Human), UniProt Q9H3R0)", "sequence (Q9H3R0 2-372)": "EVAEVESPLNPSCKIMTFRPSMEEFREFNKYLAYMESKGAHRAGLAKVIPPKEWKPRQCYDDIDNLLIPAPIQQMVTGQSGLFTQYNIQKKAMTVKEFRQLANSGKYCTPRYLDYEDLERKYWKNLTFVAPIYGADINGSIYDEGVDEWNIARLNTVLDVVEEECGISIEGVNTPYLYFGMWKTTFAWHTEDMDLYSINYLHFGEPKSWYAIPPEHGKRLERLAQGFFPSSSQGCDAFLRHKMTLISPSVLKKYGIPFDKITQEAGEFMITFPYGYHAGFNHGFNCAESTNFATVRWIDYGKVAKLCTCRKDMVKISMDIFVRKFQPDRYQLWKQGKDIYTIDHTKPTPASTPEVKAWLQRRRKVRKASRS", "test": "In vitro enzyme inhibition assay, JMJD2C demethylase activity (TR-FRET)", "assay_type": "biochemical", "conditions": "0.3 nM JMJD2C, 300 nM H3K9me3-biotin peptide, 2 μM alpha-ketoglutaric acid, 30 minutes at room temperature", "description": "This assay determines the ability of a test compound to inhibit JMJD2C demethylase activity. Baculovirus expressed JMJD2C (GenBank Accession #BC143571, AA 2-372) was purchased from BPS Bioscience (Cat#50105).\nThe ability of test compounds to inhibit the activity of JMJD2C was determined in 384-well plate format under the following reaction conditions: 0.3 nM JMJD2C, 300 nM H3K9me3-biotin labeled peptide (Anaspec cat #64360), 2 μM alpha-ketoglutaric acid in assay buffer of 50 mM HEPES, pH7.3, 0.005% Brij35, 0.5 mM TCEP, 0.2 mg/ml BSA, 50 μM sodium L-ascorbate, and 2 μM ammonium iron(II) sulfate. Reaction product was determined quantitatively by TR-FRET after the addition of detection reagent Phycolink Streptavidin-allophycocyanin (Prozyme) and Europium-anti-di-methylated histone H3 lysine 9 (H3K9me2) antibody (PerkinElmer) in the presence of 5 mM EDTA in LANCE detection buffer (PerkinElmer) at a final concentration of 50 nM and 1 nM, respectively.\nThe assay reaction was initiated by the following: 2 μL of the mixture of 900 nM H3K9me3-biotin labeled peptide and 6 μM alpha-ketoglutaric acid with 2 μL of 11-point serial diluted inhibitor in 3% DMSO were added to each well of the plate, followed by the addition of 2 μl of 0.9 nM JMJD2C to initiate the reaction. The reaction mixture was incubated at room temperature for 30 minutes, and terminated by the addition of 6 μL of 5 mM EDTA in LANCE detection buffer containing 100 nM Phycolink Streptavidin-allophycocyanin and 2 nM Europium-anti-H3K9me2 antibody. Plates were read by EnVisionMultilabel Reader in TR-FRET mode (excitation at 320 nm, emission at 615 nm and 665 nm) after 1 hour incubation at room temperature. A ratio was calculated (665/615) for each well and fitted to determine inhibition constant (IC50).", "units": {"IC50": "µM"}, "values": [
      {"smiles": "COc1ccc2c(-c3cc4nccc(C(=O)O)c4[nH]3)n(C)nc2c1", "note": "[Example 1, 2-(6-Methoxy-2-methyl-2H-indazol-3-yl)-1H-pyrrolo[3,2-b]pyridine-7-carboxylic acid]", "IC50": "0.1 to 1"},
      {"smiles": "COc1ccc2nn(C)c(-c3cc4nccc(C(=O)O)c4[nH]3)c2c1", "note": "[Example 2, 2-(5-Methoxy-2-methyl-2H-indazol-3-yl)-1H-pyrrolo[3,2-b]pyridine-7-carboxylic acid]", "IC50": "0.1 to 1"},
      {"smiles": "Cn1nc2cc(Cl)ccc2c1-c1cc2nccc(C(=O)O)c2[nH]1", "note": "[Example 3, 2-(6-Chloro-2-methyl-2H-indazol-3-yl)-1H-pyrrolo[3,2-b]pyridine-7-carboxylic acid]", "IC50": "0.1 to 1"},
      {"smiles": "Cn1nc2ccc(C(F)(F)F)cc2c1-c1cc2nccc(C(=O)O)c2[nH]1", "note": "[Example 4, 2-[2-Methyl-5-(trifluoromethyl)-2H-indazol-3-yl]-1H-pyrrolo[3,2-b]pyridine-7-carboxylic acid]", "IC50": "1 to 10"},
      {"smiles": "Cn1nc2ccc(OC(F)(F)F)cc2c1-c1cc2nccc(C(=O)O)c2[nH]1", "note": "[Example 5, 2-[2-Methyl-5-(trifluoromethoxy)-2H-indazol-3-yl]-1H-pyrrolo[3,2-b]pyridine-7-carboxylic acid]", "IC50": "1 to 10"},
      {"smiles": "Cn1nc2ccc(C3CC3)cc2c1-c1cc2nccc(C(=O)O)c2[nH]1", "note": "[Example 6, 2-(5-Cyclopropyl-2-methyl-2H-indazol-3-yl)-1H-pyrrolo[3,2-b]pyridine-7-carboxylic acid]", "IC50": "0.1 to 1"},
      {"smiles": "Cn1nc2ccc(Cl)cc2c1-c1cc2nccc(C(=O)O)c2[nH]1", "note": "[Example 7, 2-(5-Chloro-2-methyl-2H-indazol-3-yl)-1H-pyrrolo[3,2-b]pyridine-7-carboxylic acid]", "IC50": "1 to 10"},
      {"smiles": "CCn1nc2cc(Cl)ccc2c1-c1cc2nccc(C(=O)O)c2[nH]1", "note": "[Example 8, 2-(6-Chloro-2-ethyl-2H-indazol-3-yl)-1H-pyrrolo[3,2-b]pyridine-7-carboxylic acid]", "IC50": "1 to 10"},
      {"smiles": "O=C(O)c1ccnc2cc(-c3c4ccc(Cl)cc4nn3CC3CC3)[nH]c12", "note": "[Example 9, 2-[6-Chloro-2-(cyclopropylmethyl)-2H-indazol-3-yl]-1H-pyrrolo[3,2-b]pyridine-7-carboxylic acid]", "IC50": "1 to 10"},
      {"smiles": "O=C(O)c1ccnc2cc(-c3c4cc(Cl)ccc4nn3CCN3CCCC3)[nH]c12", "note": "[Example 10, 2-{5-Chloro-2-[2-(pyrrolidin-1-yl)ethyl]-2H-indazol-3-yl}-1H-pyrrolo[3,2-b]pyridine-7-carboxylic acid]", "IC50": "0.1 to 1"},
      {"smiles": "CN(c1ccccc1)c1ccc2c(-c3cc4nccc(C(=O)O)c4[nH]3)n(C)nc2c1", "note": "[Example 11, 2-{2-methyl-6-[methyl(phenyl)amino]-2H-indazol-3-yl}-1H-pyrrolo[3,2-b]pyridine-7-carboxylic acid]", "IC50": "0.1 to 1"},
      {"smiles": "CN(c1ccccc1)c1cccc2c(-c3cc4nccc(C(=O)O)c4[nH]3)n(C)nc12", "note": "[Example 12, 2-{2-methyl-7-[methyl(phenyl)amino]-2H-indazol-3-yl}-1H-pyrrolo[3,2-b]pyridine-7-carboxylic acid]", "IC50": "1 to 10"},
      {"smiles": "Cn1nc(-c2cc3nccc(C(=O)O)c3[nH]2)c2ccccc21", "note": "[Example 13, 2-(1-methyl-1H-indazol-3-yl)-1H-pyrrolo[3,2-b]pyridine-7-carboxylic acid]", "IC50": "0.1 to 1"},
      {"smiles": "Cn1nc(-c2cc3nccc(C(=O)O)c3[nH]2)c2cc(F)ccc21", "note": "[Example 14, 2-(5-fluoro-1-methyl-1H-indazol-3-yl)-1H-pyrrolo[3,2-b]pyridine-7-carboxylic acid]", "IC50": "0.1 to 1"},
      {"smiles": "Cn1nc(-c2cc3nccc(C(=O)O)c3[nH]2)c2ccc(Cl)cc21", "note": "[Example 15, 2-(6-chloro-1-methyl-1H-indazol-3-yl)-1H-pyrrolo[3,2-b]pyridine-7-carboxylic acid]", "IC50": "0.1 to 1"},
      {"smiles": "Cn1nc(-c2cc3nccc(C(=O)O)c3[nH]2)c2ccc(F)cc21", "note": "[Example 16, 2-(6-fluoro-1-methyl-1H-indazol-3-yl)-1H-pyrrolo[3,2-b]pyridine-7-carboxylic acid]", "IC50": "0.1 to 1"},
      {"smiles": "CCn1nc(-c2cc3nccc(C(=O)O)c3[nH]2)c2ccc(Cl)cc21", "note": "[Example 17, 2-(6-chloro-1-ethyl-1H-indazol-3-yl)-1H-pyrrolo[3,2-b]pyridine-7-carboxylic acid]", "IC50": "1 to 10"},
      {"smiles": "O=C(O)c1ccnc2cc(-c3nn(CC4CC4)c4cc(Cl)ccc34)[nH]c12", "note": "[Example 18, 2-[6-chloro-1-(cyclopropylmethyl)-1H-indazol-3-yl]-1H-pyrrolo[3,2-b]pyridine-7-carboxylic acid]", "IC50": "1 to 10"},
      {"smiles": "O=C(O)c1ccnc2cc(-c3nn(CC(F)(F)F)c4cc(Cl)ccc34)[nH]c12", "note": "[Example 19, 2-[6-chloro-1-(2,2,2-trifluoroethyl)-1H-indazol-3-yl]-1H-pyrrolo[3,2-b]pyridine-7-carboxylic acid]", "IC50": "1 to 10"},
      {"smiles": "O=C(O)c1ccnc2cc(-c3nn(CCN4CCCC4)c4ccc(Cl)cc34)[nH]c12", "note": "[Example 20, 2-{5-chloro-1-[2-(pyrrolidin-1-yl)ethyl]-1H-indazol-3-yl}-1H-pyrrolo[3,2-b]pyridine-7-carboxylic acid]", "IC50": "0.1 to 1"},
      {"smiles": "O=C(O)c1ccnc2cc(-c3nn(CCN4CCOCC4)c4ccc(F)cc34)[nH]c12", "note": "[Example 21, 2-{5-fluoro-1-[2-(morpholin-4-yl)ethyl]-1H-indazol-3-yl}-1H-pyrrolo[3,2-b]pyridine-7-carboxylic acid]", "IC50": "1 to 10"}
    ]}
  ]
}
